Data taken from article PMC9556845 (Frontiers in Microbiology, 2022).
Entries after “also recorded” stand apart in the source; their conditions may differ. Read-outs that look alike come from different tables or passages of the source.

Tests used:
Type in all cases: biochemical
CD45 = biological target: T1, CD45 (Homo sapiens, UniProt P08575); assay: Inhibition of protein tyrosine phosphatase (PTPs) assay, pNPP substrate: CD45
T1 sequence (P08575 26-1306): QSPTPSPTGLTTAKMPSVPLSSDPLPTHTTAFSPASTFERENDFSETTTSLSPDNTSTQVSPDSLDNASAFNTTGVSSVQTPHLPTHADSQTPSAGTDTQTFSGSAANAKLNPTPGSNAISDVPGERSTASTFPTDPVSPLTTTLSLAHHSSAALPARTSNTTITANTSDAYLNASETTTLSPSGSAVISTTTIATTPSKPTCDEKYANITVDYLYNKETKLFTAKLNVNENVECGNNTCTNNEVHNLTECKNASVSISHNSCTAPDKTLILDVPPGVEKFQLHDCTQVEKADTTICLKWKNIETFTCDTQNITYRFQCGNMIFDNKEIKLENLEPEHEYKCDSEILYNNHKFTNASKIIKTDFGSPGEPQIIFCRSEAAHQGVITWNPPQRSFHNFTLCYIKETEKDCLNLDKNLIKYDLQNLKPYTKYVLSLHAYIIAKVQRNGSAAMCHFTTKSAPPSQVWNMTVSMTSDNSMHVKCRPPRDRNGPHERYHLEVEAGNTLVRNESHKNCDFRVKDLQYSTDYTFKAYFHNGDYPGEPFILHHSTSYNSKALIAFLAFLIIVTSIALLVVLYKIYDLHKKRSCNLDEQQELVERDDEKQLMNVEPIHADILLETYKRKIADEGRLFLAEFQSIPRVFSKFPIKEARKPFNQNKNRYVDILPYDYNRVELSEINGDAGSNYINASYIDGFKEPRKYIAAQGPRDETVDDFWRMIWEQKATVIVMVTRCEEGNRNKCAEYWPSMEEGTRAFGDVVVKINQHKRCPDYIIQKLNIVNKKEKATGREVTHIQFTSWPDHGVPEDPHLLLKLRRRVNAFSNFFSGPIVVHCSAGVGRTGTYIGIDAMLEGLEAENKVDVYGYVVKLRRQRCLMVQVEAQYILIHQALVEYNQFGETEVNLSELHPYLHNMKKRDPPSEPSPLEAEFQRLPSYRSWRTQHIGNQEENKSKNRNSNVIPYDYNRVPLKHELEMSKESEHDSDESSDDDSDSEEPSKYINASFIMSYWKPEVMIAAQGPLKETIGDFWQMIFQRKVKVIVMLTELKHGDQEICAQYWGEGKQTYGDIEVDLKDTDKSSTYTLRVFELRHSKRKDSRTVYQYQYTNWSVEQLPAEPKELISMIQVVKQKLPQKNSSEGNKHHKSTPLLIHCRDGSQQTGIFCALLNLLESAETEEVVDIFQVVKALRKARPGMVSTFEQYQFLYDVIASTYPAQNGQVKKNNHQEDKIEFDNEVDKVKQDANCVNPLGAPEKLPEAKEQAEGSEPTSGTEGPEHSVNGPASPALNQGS
Description: (§1) Protein tyrosine phosphatase (PTPs) plays an important role in many human threatening diseases, such as PTP1B, an effective target for the treatment of type II diabetes; CD45, an effective target for the treatment of leukemia; and TCPTP, a reliable target for the treatment of cancer involved in multiple signaling pathways ([Ruddraraju and Zhang, 2017]). Nitrophenyl phosphate (pNPP) was used as substrate to determine the enzyme inhibition test. Fifty microliter reaction buffer (pH 6.5) including 50 mM HEPES, 100 mM NaCl, 1 mM EDTA, and 1 mM dithiothreitol (DTT) and compounds was added to 96 well plates, and incubate at room temperature for 15 min. Further, 50 μl reaction buffer with 50 mM pNPP was added and incubated at 37°C for 60 min. Na3VO4 was used as positive control and DMSO as the negative control. The phosphatase activity was determined by absorbance measured at 405 nm. The test was repeated three times for each compound. The IC50 value was derived from three independent experiments.
(§2) Protein tyrosine phosphatase (PTPs) plays an important role in many human threatening diseases, such as PTP1B, an effective target for the treatment of type II diabetes; CD45, an effective target for the treatment of leukemia; and TCPTP, a reliable target for the treatment of cancer involved in multiple signaling pathways ([Zhang, 2003]; [Vintonyak et al., 2009]).

PTP1B = biological target: T2, PTP1B (Homo sapiens, UniProt P18031); assay: Inhibition of protein tyrosine phosphatase (PTPs) assay, pNPP substrate: PTP1B; conditions: for inhibitory activity against PTP1B (in words): in vitro, compared with Na3VO4
T2 sequence (P18031 1-435): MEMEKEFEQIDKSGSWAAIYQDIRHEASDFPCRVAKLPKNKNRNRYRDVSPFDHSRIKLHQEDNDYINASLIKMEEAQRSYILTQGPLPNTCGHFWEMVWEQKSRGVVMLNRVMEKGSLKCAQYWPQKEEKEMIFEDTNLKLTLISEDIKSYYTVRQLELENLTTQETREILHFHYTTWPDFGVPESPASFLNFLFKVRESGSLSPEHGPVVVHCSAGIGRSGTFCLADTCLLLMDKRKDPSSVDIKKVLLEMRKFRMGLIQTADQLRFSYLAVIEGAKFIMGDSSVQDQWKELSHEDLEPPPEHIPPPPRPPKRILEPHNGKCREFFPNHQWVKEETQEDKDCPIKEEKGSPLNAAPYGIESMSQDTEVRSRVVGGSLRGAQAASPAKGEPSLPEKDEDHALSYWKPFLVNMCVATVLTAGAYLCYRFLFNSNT
Experimental: Nitrophenyl phosphate (pNPP) was used as substrate to determine the enzyme inhibition test. Fifty microliter reaction buffer (pH 6.5) including 50 mM HEPES, 100 mM NaCl, 1 mM EDTA, and 1 mM dithiothreitol (DTT) and compounds was added to 96 well plates, and incubate at room temperature for 15 min. Further, 50 μl reaction buffer with 50 mM pNPP was added and incubated at 37°C for 60 min. […] The phosphatase activity was determined by absorbance measured at 405 nm. The test was repeated three times for each compound. The IC50 value was derived from three independent experiments.

TCPTP = biological target: T3, TCPTP (Homo sapiens, UniProt P17706); assay: Inhibition of protein tyrosine phosphatase (PTPs) assay, pNPP substrate: TCPTP
T3 sequence (P17706 1-415): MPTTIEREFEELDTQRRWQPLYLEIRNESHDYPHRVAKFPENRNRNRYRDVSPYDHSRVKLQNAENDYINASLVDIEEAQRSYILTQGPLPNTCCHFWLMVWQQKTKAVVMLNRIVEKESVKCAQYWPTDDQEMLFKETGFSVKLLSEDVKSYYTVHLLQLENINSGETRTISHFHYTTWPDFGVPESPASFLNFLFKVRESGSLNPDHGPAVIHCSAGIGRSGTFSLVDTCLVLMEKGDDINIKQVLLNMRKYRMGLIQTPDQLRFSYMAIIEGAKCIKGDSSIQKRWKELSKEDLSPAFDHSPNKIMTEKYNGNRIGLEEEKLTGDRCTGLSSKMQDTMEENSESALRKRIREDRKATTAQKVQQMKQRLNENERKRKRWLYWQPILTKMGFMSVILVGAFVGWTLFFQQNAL
Description: as §1, §2

IDH1 R132h = IDH1 R132h (Homo sapiens, UniProt O75874, R132H); assay: Isocitrate dehydrogenase inhibition assay (NADPH/α-KG, WST-8 readout); conditions: for IC50: room temperature 60 min, absorbance 450 nm, repeated three times
IDH1 R132h, sequence (O75874 whole entry R132H): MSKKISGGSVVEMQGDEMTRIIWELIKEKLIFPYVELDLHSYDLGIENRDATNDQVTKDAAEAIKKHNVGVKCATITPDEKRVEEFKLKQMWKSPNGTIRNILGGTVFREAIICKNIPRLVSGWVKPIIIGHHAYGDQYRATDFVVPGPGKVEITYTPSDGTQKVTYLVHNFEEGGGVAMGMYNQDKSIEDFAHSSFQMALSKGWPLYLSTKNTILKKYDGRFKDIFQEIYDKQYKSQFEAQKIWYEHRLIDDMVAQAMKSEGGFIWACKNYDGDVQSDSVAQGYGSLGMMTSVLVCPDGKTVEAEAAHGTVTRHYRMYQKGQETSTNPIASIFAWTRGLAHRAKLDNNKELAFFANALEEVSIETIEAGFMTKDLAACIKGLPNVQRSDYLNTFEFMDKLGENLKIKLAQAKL
Experimental: DMSO was used to configure the compounds into different concentrations as test samples. 2 mm NADPH (3 μl) and 1 m α-Kg (0.1 μl) was added to IDH1 buffer (pH 6.5; 96 μl) solution as reaction substrate in the reaction system. Then, the test samples (2.0 μl), IDH1 R132h (0.4 μl), PMS (0.1 μl) and 15 mM WST-8 (1.0 μl) were successively added to the above mixture and reacted at room temperature for 60 min. AGI-5198 was used as positive control and DMSO as the negative control. The absorption peak of 450 nm was detected by microplate reader. The test was repeated three times for each test samples, and the IC50 was calculated by GraphPad Prism.
We have learned that isocitrate dehydrogenase (IDH) gene mutations are closely related to the occurrence and development of tumors ([Fujii et al., 2016]). IDH mutations mainly occur in malignant tumors such as glioma, acute myeloid leukemia, chondrosarcoma, and intrahepatic cholangiocarcinoma. IDH mutation ultimately promote the occurrence and development of tumors ([Gondim et al., 2019]). Therefore, inhibition of IDH1 R132h activity was screened using the above compounds. AGI-5198 was used as a positive control in this experiment with the IC50 value of 0.04 μg/ml.

[1] = pNPP substrate, pH 6.5, 37°C 60 min, absorbance 405 nm, three independent experiments, read-out: IC50 CD45 (converted)
[2] = pNPP substrate, pH 6.5, 37°C 60 min, absorbance 405 nm, three independent experiments, read-out: IC50 PTP1B (converted)
[3] = pNPP substrate, pH 6.5, 37°C 60 min, absorbance 405 nm, three independent experiments, read-out: IC50 TCPTP
[4] = pNPP substrate, pH 6.5, 37°C 60 min, absorbance 405 nm, three independent experiments

| Structure (SMILES) | IC50 (CD45; [1]) | IC50 (PTP1B; [2]) | IC50 (TCPTP; [3]) | IC50 (IDH1 R132h) | further results |
| --- | --- | --- | --- | --- | --- |
| [Na+].[Na+].[Na+].[O]=[V]([O-])([O-])[O-] [Na3VO4, reference compound] |  |  |  |  | IC50 CD45 (CD45; [4]): 0.36 ± 0.09 µg/mL; IC50 TCPTP (TCPTP; [4]): 0.44 ± 0.11 µg/mL |
| COc1cc(O)cc(C2=C(C)C[C@@H](O)C2=O)c1 [Compound 14, (+)-nigrosporaol A] | > 427 µM | 383 µM | > 427 µM |  |  |
| COc1cc(O)c2c(c1)C1(CC(O)C(O)C=C1C)OC2=O (centres unmarked) [Compound 2, Alternafurone B] |  |  |  | 66.4 µM | inhibitory activity against IDH1 R132h (in words) (IDH1 R132h): inhibitory activities |
| Cc1cc(=O)c2c(C)cc(O)cc2o1 [Compound 17, 2,5-dimethyl-7-hydroxychromone] | 104 µM | > 526 µM | > 526 µM |  |  |
| Cc1cc(O)cc2oc(=O)c3c(O)cc(O)cc3c12 [Compound 6, alternariol] |  |  |  |  | IC50 (CD45): 22.5 µM; inhibitory activity against CD45 (in words) (CD45; in vitro, compared with Na3VO4): definite inhibitory activity; IC50 (PTP1B): 61 µM; IC50 (TCPTP): 30.2 µM; inhibitory activity against TCPTP (in words) (TCPTP; in vitro, compared with Na3VO4): definite inhibitory activity |
| Cc1ccccc1C(C(=O)NC1CCCCC1)N(C(=O)Cn1ccnc1C)c1cccc(F)c1 (centres unmarked) [AGI-5198, reference compound] |  |  |  | 0.0865 µM |  |
| COc1cc(O)c2c(c1)C1(CC(O)C(O)C=C1C)OC2=O (centres unmarked) [Compound 1, Alternafurone A] |  |  |  | 101 µM | inhibitory activity against IDH1 R132h (in words) (IDH1 R132h): inhibitory activities |
| COc1cc(O)c2c(c1)C1=CC(O)C(O)CC1(C)OC2=O (centres unmarked) [Compound 12, 4′-epialtenuene] | > 342 µM | 25.5 µM | > 342 µM |  | inhibitory activity against PTP1B (in words) (PTP1B): inhibitory activity |
| COc1cc(O)c2c(=O)oc3cc(O)cc(C)c3c2c1 [Compound 7, alternariol 9-methyl ether] |  |  |  |  | IC50 (CD45): 72.8 µM; IC50 (PTP1B): 139 µM; IC50 (TCPTP): 211 µM |

Continued, in another order:

| IC50 (CD45; [1]) | IC50 (PTP1B; [2]) | IC50 (TCPTP; [3]) | IC50 (IDH1 R132h) | Structure (SMILES) | further results |
| --- | --- | --- | --- | --- | --- |
| > 340 µM | 3.3 µM | > 340 µM |  | COc1cc(O)c2c(c1)C1C[C@H](O)[C@@H](O)C[C@@]1(C)OC2=O (some centres unmarked) [Compound 9, 3-epidihydroaltenuene A] | inhibitory activity against PTP1B (in words) (PTP1B): specific and significant inhibition; also recorded: significant inhibitory activity |
| > 342 µM | 187 µM | > 342 µM |  | COc1cc(O)c2c(c1)C1=C[C@@H](O)[C@@H](O)C[C@]1(C)OC2=O [Compound 11, 5′-epialtenuene] |  |
| 120 µM | > 485 µM | > 485 µM |  | Cc1cc(O)cc2oc(CO)cc(=O)c12 [Compound 19, 7-hydroxy-2-hydroxymethyl-5-methyl-4H-chromen-4-one] |  |
|  |  |  | 36 µM | COC(=O)C1CC2(O)CC3(C)OC(=O)c4c(O)cc(OC)cc4C3=CC2(O)O1 (centres unmarked) [Compound 4, Alternapyrone N] | inhibitory activity against IDH1 R132h (in words) (IDH1 R132h): inhibitory activities |
|  |  |  | > 147 µM | COc1cc(O)c2c(c1)C1=CC3(CC(O)C(=O)O3)C(O)CC1(C)OC2=O (centres unmarked) [Compound 3, Alternapyrone M] |  |
| > 342 µM | 156 µM | > 342 µM |  | COc1cc(O)c2c(c1)C1=C[C@H](O)[C@@H](O)C[C@]1(C)OC2=O [Compound 10, 5-hydroxyepialtenuene] |  |
